# Earlier results in patent US20160199437A1, “THERAPEUTIC COMPOSITIONS INCLUDING IRON CHELATORS AND USES THEREOF” (priority 2015, published 2016).
# Tested on: several mammalian cell types
# Settings: energy-independent manner; cited from earlier work
substance,measurement,value
"2′,6′-Dmt-D-Arg-Phe-Lys-NH2",penetration of the plasma membrane,readily penetrates the plasma membrane
